According to patent US12612424B2, “HPK1 inhibitors and uses thereof” (Regor Pharmaceuticals, Inc., priority 2019, dated 2026):

System: Human Pan T Cell (IL-2 release)
Experiment: IL2 released by human pan T cell upon anti-CD3/anti-CD28 stimulation (ELISA)
Type: cell-based
Settings: human pan T cells; for EC (2-fold response) / maximal fold induction: 48 h; for EC (2-fold response) / EC2x (nM): concentration of compound that gives 200% IL-2 response (2 folds) over DMSO control; for maximal fold induction / IL-2 Max Fold Response: response of IL-2 over DMSO control, anti-CD3/anti-CD28, 48 hours, ELISA; for maximal fold induction: read-out: IL-2 Max Fold Response; for EC50: IL-2 response, calculated with GraphPad Prism
From the text: For example, Example 5 describes such a functional assay for determining the effect of an HPK1 inhibitor on IL-2 & IFN-γ release upon stimulation of Pan T cells. The secreted IL-2 & IFN-γ can be measured/quantified by standard ELISA assay. Briefly, pan T cells can be isolated from peripheral blood (PB) mononuclear cells (MNCs), or PBMC, using commercially available kits, such as MACS (Miltenyl Biotec) Pan T isolation kit (Cat. No. 130-096-535). Primary human pan-T cells include CD4 and CD8 T cells as well as some gamma/delta T cell subsets. The pan-T cells can be isolated using the negative immunomagnetic separation technique without the use of columns.
Isolated pan-T cells can be dispensed into 96-well plates at 100,000 cells/well, and stimulated with immobilized anti-CD3 antibody and soluable anti-CD28 antibody, or PMA/Ionomycin as the positive control (or culture media as the negative control). Different concentrations of test compounds can be added to the cells to assess the compound effect on cytokine secretion following TCR-stimulation/CD28 co-stimulation. Stimulated cells are incubated for 2 more days, before the supernatant (containing secreted cytokines by pan-T cells) is collected from each well for ELISA assay and quantitation of IL-2 and IFN-γ.
Biology Example 8 Compound Efficacy Study on IL2 & IFN-γ Released by Human Pan T Cell
This example is an assay method that can be used to determine compound effects on IL2 & IFN-γ release using pan T cells and ELISA assay format.
3. Procedures Procedures for Pan T isolation and Reagent preparation (Day 0): 1. Cell Growth Medium: • RPMI1640: ATCC, Cat #30-2001 • 10% FBS: Gibco, Cat #10099141 • 1% Pen-Strep: Gibco, Cat #15140122 • 1% Non-essential amino: Gibco, Cat #11140050 • Beta-Mercaptoethanol: Gibco, Cat #21985023 2. Pan T Isolation Buffer Preparation:
Prepare a solution containing phosphate-buffered saline (PBS), pH 7.2, 0.5% bovine serum albumin (BSA), and 2 mM EDTA by diluting MACS® BSA Stock Solution (#130-091-376) 20 times with autoMACS® Rinsing Solution. Keep buffer at 4° C. Degas buffer before use, as air bubbles could block the column.
3. Thawing of Frozen PBMC • 1) Pre-heat medium at 37° C. water bath. • 2) Rapidly thaw cells in 37° C. water bath. • 3) Add the pre-warmed medium into 15 mL tube. Transfer cells to the tube. • 4) 300×g centrifuge for 8 min. (centrifuge increase 0, decrease 0). • 5) Wash the PBMC using Rinsing buffer. • 6) Centrifuge PBMC at 300×g for 8 min, wash it twice (centrifuge increase 9, decrease 1). • 7) Resuspend the cells with Pan T cells isolation buffer and count cells number. 4. Pan T Cells Isolation: Cell Staining with Microbead Cocktail • 1) Prepare cells and determine cell number. Filter cells by 70 μm cell strainer. • 2) Resuspend cell pellet in 40 μL of buffer per 10^7 total cells. • 3) Add 10 μL of Pan T Cell Biotin-Antibody Cocktail per 10^7 total cells. • 4) Mix well and incubate for 10 minutes in the refrigerator (ice). • 5) Add 30 μL of buffer per 10^7 total cells. • 6) Add 20 μL of Pan T Cell MicroBead Cocktail per 10^7 total cells. • 7) Mix well and incubate for 15 minutes in the refrigerator (ice). • 8) Proceed to subsequent magnetic cell separation. • Note: a. Work fast, keep cells cold, and use pre-cooled solutions (2-8° C.). b. Volumes for magnetic labeling given are for up to 10′ total cells. When working with fewer cells, use the same volumes as indicated. c. When working with higher cell numbers, scale up all reagent volumes and total volumes accordingly. d. For optimal performance it is important to obtain a single-cell suspension before magnetic labeling. Subsequent Manual Cell Separation: • 1) Place LS Column in the magnetic field of a suitable MACS Separator. For details refer to the respective MACS Column data sheet. • 2) Prepare column by rinsing with 3 mL of buffer. • 3) Apply cell suspension onto the column. Collect flow-through, which represents the enriched T cells. • 4) Wash column with 5 mL of buffer. […]

| Compound | EC (2-fold response) (Homo sapiens, T-cell) [µM] | maximal fold induction (Homo sapiens, T-cell) | EC50 (Homo sapiens, T-cell) [nM] | EC50 [nM] | IL-2 Max Fold Response | EC2x (nM) |
| --- | --- | --- | --- | --- | --- | --- |
| COc1cc2c(cc1Nc1ncc(Cl)c(N3CC(C(=O)O)c4ccccc43)n1)CN(C)CC2 (single isomer, unassigned) [Example 96] | 0.1 to 0.5 | > 2 | 100 to 500 |  |  |  |
| COc1cc2c(cc1Nc1ncc(Cl)c(N3C[C@](C)(C(=O)O)c4ccccc43)n1)CN(C)CC2 (single isomer, unassigned) [Example 118] |  | < 2 | > 1000 |  |  |  |
| COc1cc2c(cc1Nc1ncc(Cl)c(N3C[C@@](C)(C(=O)O)c4ccccc43)n1)CN(C)CC2 (single isomer, unassigned) [Example 119] | ≤ 0.1 | > 2 | ≤ 100 |  |  |  |
| COc1cc2c(cc1Nc1ncc(Cl)c(N3CC(C)(CC(=O)O)c4ccccc43)n1)CN(C)CC2 (single isomer, unassigned) [Example 147] |  | < 2 |  | 500 to 1000 |  |  |
| COc1cc2c(cc1Nc1ncc(Cl)c(N3CC(C)(CC(=O)O)c4ccccc43)n1)CN(C)CC2 (single isomer, unassigned) [Example 148] | ≤ 0.1 |  |  | ≤ 100 | >2 |  |
| COc1cc2c(cc1Nc1ncc(Cl)c(N3CC(C)(CC(=O)O)c4ccc(F)cc43)n1)CN(C)CC2 (single isomer, unassigned) [Example 152] | ≤ 0.1 | > 2 | ≤ 100 |  |  |  |
| COc1cc2c(cc1Nc1ncc(Cl)c(N3CC(C)(CC(=O)O)c4ccc(F)cc43)n1)CN(C)CC2 (single isomer, unassigned) [Example 153] |  |  |  | 100 to 500 | >2 | +++ (“+++”, for higher values than “++++” but less than or equal to 500 nM) |
| COc1cc2c(cc1Nc1ncc(Cl)c(-n3ccc4ccccc43)n1)CN(C)CC2 [Example 2, N-(5-chloro-4-(1H-indol-1-yl)pyrimidin-2-yl)-6-methoxy-2-methyl-1,2,3,4-tetrahydroisoquinolin-7-amine] |  | < 2 |  |  |  |  |
| COc1cc2c(cc1Nc1ncc(Cl)c(N3CCc4ccccc43)n1)CN(C)CC2 [Example 4, N-(5-Chloro-4-(indolin-1-yl)pyrimidin-2-yl)-6-methoxy-2-methyl-1,2,3,4-tetrahydroisoquinolin-7-amine] | 0.1 to 0.5 | > 2 | 100 to 500 |  |  |  |
| COc1cc2c(cc1Nc1ncc(Cl)c(-n3cc(C(=O)N(C)C)c4ccccc43)n1)CN(C)CC2 [Example 8] |  | < 2 |  |  |  |  |
| COc1cc2c(cc1Nc1ncc(Cl)c(-n3cnc4ccccc43)n1)CN(C)CC2 [Example 9, N-(4-(1H-benzo[d]imidazol-1-yl)-5-chloropyrimidin-2-yl)-6-methoxy-2-methyl-1,2,3,4-tetrahydroisoquinolin-7-amine] |  | > 2 | 100 to 500 |  |  | ++ (“++”, for higher values than “+++” but less than or equal to 1 μM) |
| COc1cc2c(cc1Nc1ncc(C(F)(F)F)c(-n3ccc4ccccc43)n1)CN(C)CC2 [Example 10, N-(4-(1H-indol-1-yl)-5-(trifluoromethyl)pyrimidin-2-yl)-6-methoxy-2-methyl-1,2,3,4-tetrahydroisoquinolin-7-amine] |  | < 2 |  |  |  |  |
| COc1cc2c(cc1Nc1ncc(Cl)c(N3CCc4cc(Cl)ccc43)n1)CN(C)CC2 [Example 13, N-(5-chloro-4-(5-chloroindolin-1-yl)pyrimidin-2-yl)-6-methoxy-2-methyl-1,2,3,4-tetrahydroisoquinolin-7-amine] |  | < 2 | > 1000 |  |  |  |
| CN1CCc2ccc(Nc3ncc(Cl)c(N4CCc5ccccc54)n3)cc2C1 [Example 14, N-(5-Chloro-4-(indolin-1-yl)pyrimidin-2-yl)-2-methyl-1,2,3,4-tetrahydroisoquinolin-7-amine] |  | < 2 |  |  |  |  |
| CN1CCc2cc(Cl)c(Nc3ncc(Cl)c(N4CCc5ccccc54)n3)cc2C1 [Example 15, 6-Chloro-N-(5-chloro-4-(indolin-1-yl)pyrimidin-2-yl)-2-methyl-1,2,3,4-tetrahydroisoquinolin-7-amine] |  | > 2 | > 1000 |  |  | + (“+”, for greater than 1 μM) |
| COc1cc2c(cc1Nc1ncc(Cl)c(N3CCc4ncccc43)n1)CN(C)CC2 [Example 16, N-(5-chloro-4-(2,3-dihydro-1H-pyrrolo[3,2-b]pyridin-1-yl)pyrimidin-2-yl)-6-methoxy-2-methyl-1,2,3,4-tetrahydroisoquinolin-7-amine] |  | < 2 | 100 to 500 |  |  |  |
| COc1cc2c(cc1Nc1ncc(Cl)c(N3CCc4ccc(Cl)cc43)n1)CN(C)CC2 [Example 18, N-(5-chloro-4-(6-chloroindolin-1-yl)pyrimidin-2-yl)-6-methoxy-2-methyl-1,2,3,4-tetrahydroisoquinolin-7-amine] |  | < 2 | 100 to 500 |  |  |  |
| COc1cc2c(cc1Nc1ncc(Cl)c(N3CC(S(C)(=O)=O)c4ccccc43)n1)CN(C)CC2 (stereo not drawn) [Example 81, N-(5-chloro-4-(3-(methylsulfonyl)indolin-1-yl)pyrimidin-2-yl)-6-methoxy-2-methyl-1,2,3,4-tetrahydroisoquinolin-7-amine] | 0.1 to 0.5 | > 2 | 500 to 1000 |  |  |  |
| COc1cc2c(cc1Nc1ncc(Cl)c(-n3cc(S(N)(=O)=O)c4ccccc43)n1)CN(C)CC2 [Example 83, 1-(5-Chloro-2-((6-methoxy-2-methyl-1,2,3,4-tetrahydroisoquinolin-7-yl)amino)pyrimidin-4-yl)-1H-indole-3-sulfonamide] |  | < 2 | 100 to 500 |  |  |  |
| COc1cc2c(cc1Nc1ncc(Cl)c(N3CC4(CC4)c4ccccc43)n1)CN(C)CC2 [Example 84, N-(5-chloro-4-(spiro[cyclopropane-1,3′-indolin]-1′-yl)pyrimidin-2-yl)-6-methoxy-2-methyl-1,2,3,4-tetrahydroisoquinolin-7-amine] |  | < 2 | 500 to 1000 |  |  |  |
| COc1cc2c(cc1Nc1ncc(Cl)c(N3CCc4cc(P(C)(C)=O)ccc43)n1)CN(C)CC2 [Example 86] |  | > 2 | 100 to 500 |  |  | + (“+”, for greater than 1 μM) |
| COc1cc2c(cc1Nc1ncc(Cl)c(N3CC(CO)c4ccccc43)n1)CN(C)CC2 (stereo not drawn) [Example 87] |  | < 2 | 100 to 500 |  |  |  |
| COc1cc2c(cc1Nc1ncc(Cl)c(N3CC(P(C)(C)=O)c4ccccc43)n1)CN(C)CC2 (stereo not drawn) [Example 88] |  | < 2 | 500 to 1000 |  |  |  |
| COc1cc2c(cc1Nc1ncc(Cl)c(N3CCc4cc(C(F)F)ccc43)n1)CN(C)CC2 [Example 90, N-(5-chloro-4-(5-(difluoromethyl)indolin-1-yl)pyrimidin-2-yl)-6-methoxy-2-methyl-1,2,3,4-tetrahydroisoquinolin-7-amine] |  | < 2 | > 1000 |  |  |  |
